Experimental data published in patent US11357719B2, “Method for obtaining a diglycoside-enriched Armeria maritima extract, and use thereof in cosmetics” (BIOTECHMARINE, priority 2016, dated 2022).
Several values for one entry are separate records, joined by “and”; a condition that tells them apart may be missing. Equal entries are not always repeated.

Columns and labels:
[1] = tested on: normal human fibroblasts; experiment: Phototoxicity evaluation based on OECD test no. 432 (in vitro 3T3 NRU phototoxicity test), MTT viability; type: cell-based
Description: This evaluation is carried out based on the experimental conditions of test no. 432, entitled “in vitro 3T3 NRU phototoxicity test” from the OECD guidelines for testing chemicals, regarding conditions related to culture kinetics and to the acceptable dosage limit for Chlopromazine (CPZ). This guideline describes a method for evaluating photo-cytotoxicity by the relative reduction in the viability of the cells exposed to the chemical product in the presence or absence of light.
A pool of normal human fibroblasts of Caucasian type is used and amplified for five days in a 75 cm^2 flask in specific culture medium containing 10% FBS*. The cells are then seeded in culture wells of a 96-well plate (4 wells/condition), at 10 000 cells/well, in 200 μl of specific culture medium containing 10% FBS (Fetal Bovine Serum). 24 h after seeding, the cells are treated with the products for the test, prepared in EBSS (Earle's balance salt Solution) for one hour. At the end of this incubation, the cells are exposed (+irr) or not exposed (−irr) to a dose of 1 J/cm^2 of UVA, in the presence of the products being tested. At the end of this exposure, the cell layers are rinsed then brought back into contact with specific culture medium containing 2% of FBS. 24 h after this change, the cell viability is evaluated using the MTT method (colorimetric assay, visualized at 540 nm). The results are expressed as percentage viability relative to the control. The following parameters are deduced therefrom:
EC50: Concentration of active agent inducing 50% toxicity (−irr) or phototoxicity (+irr)
PIF (photo-irradiation factor): EC50(−irr)/EC50(+irr)
2<PIF<5: Probable phototoxicity

[2] = tested on: purified collagenase; experiment: Anti-collagenase activity, EnzCheck gelatinase/collagenase Assay Kit (cell-free, fluorimetry); type: biochemical, Clostridium Histolyticum; settings: for Fluorescence: 2 h incubation at room temperature, blank subtracted; for Inhibition: relative to control group
Description: A purified collagenase is used and the degradation of its pro-fluorescent substrate is monitored by fluorimetry.
The anti-collagenase activity is evaluated using a commercially available kit (EnzCheck™ gelatinase/collagenase Assay Kit, Molecular Probes, reference E-12055).
This is a test based on a cell-free biochemical evaluation using a purified collagenase from a […] (Clostridium Histolyticum) and a purified gelatin from porcine skin, purified type I collagen from bovine skin or purified type IV collagen from human placenta. […] The increase in the fluorescence is proportional to the MMP activity. A decrease in this fluorescence is expected in the presence of anti-MMP active agents. The test is validated using a reference anti-MMP inhibitor provided in the kit, 1,10-phenanthroline, tested at 0.01% and 0.001%.
The products are placed on a 96-well plate in the following manner:
The products are left to incubate for two hours at room temperature in darkness, then the fluorescence is determined (Excitation 495 nm; Emission: 515 nm). Each test is repeated three times. For each sample, the values are subtracted from the blank test. The percentage inhibition corresponds to the ratio of the mean of the collagenase activity obtained for each extract to the mean of the collagenase activity of the control group.

SMILES | PIF (photo-irradiation factor): EC50(−irr)/EC50(+irr) ([1]; PIF<2 no phototoxicity, 2<PIF<5 probable phototoxicity, PIF>5 phototoxicity) | EC50(+irr): concentration of active agent inducing 50% phototoxicity ([1]; exposed to 1 J/cm^2 of UVA, MTT viability 24 h after) | EC50(−irr): concentration of active agent inducing 50% toxicity ([1]; not exposed to UVA, MTT viability 24 h after) | Fluorescence ([2]; product at 0.001%) | Inhibition ([2]; product at 0.001%) | Fluorescence ([2]; product at 0.01%) | Inhibition ([2]; product at 0.01%) [%]
CN(C)CCCN1c2ccccc2Sc2ccc(Cl)cc21 [CPZ, Chlopromazine] | 89.2 | 0.25 | 22.30 | – | – | – | –
c1cnc2c(c1)ccc1cccnc12 [1,10-phenanthroline] | – | – | – | 37.13 AU and 24.41 AU | 66% and 76% | 0.91 AU and 1.07 AU | 99
